Experimental data published in PubChem BioAssay AID248 (DTP/NCI, 2004).
Values joined by “and” are separate entries in the source; they are usually repeats but may differ in a detail not shown here. Equal values may be shown once. Toxic doses and inconclusive results are not listed. Cut-off read from the data, not from the text of the source: active = T/C of 150% or more; inactive = T/C below 125%. Peptide text beside a SMILES is read from it. * marks the point of attachment. Cbz = O=C(OCc1ccccc1)*; NHNH2 = NN*

Test system: L1210 leukemia ip in BDF1 mice, survival T/C
Assay: NCI In Vivo Anticancer Drug Screen. Data for tumor model L1210 Leukemia (intraperitoneal) in B6D2F1 (BDF1) mice
Conditions: endpoint: mean survival time, higher = longer survival
Summary of the method: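 Mice bearing the transplanted tumor received compound or vehicle. Survival of the treated group was divided by that of the vehicle-treated control group to give the ratio.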

[1] = dose: 100.0 mg/kg/injection, schedule: Q01DX009 (ip), vehicle: saline with Tween-80
[2] = dose: 200.0 mg/kg/injection, schedule: Q01DX009 (ip), vehicle: saline with Tween-80
[3] = dose: 100.0 mg/kg/injection, schedule: Q01DX001 (ip), vehicle: carboxymethylcellulose (CMC)
[4] = dose: 200.0 mg/kg/injection, schedule: Q01DX001 (ip), vehicle: carboxymethylcellulose (CMC)
[5] = dose: 50.0 mg/kg/injection, schedule: Q01DX009 (ip), vehicle: Klucel (hydroxypropylcellulose) (HPC)
[6] = dose: 100.0 mg/kg/injection, schedule: Q04DX003 (ip), vehicle: Klucel (hydroxypropylcellulose) (HPC)
[7] = dose: 100.0 mg/kg/injection, schedule: Q04DX003 (ip), vehicle: saline with Tween-80
[8] = dose: 200.0 mg/kg/injection, schedule: Q04DX003 (ip), vehicle: saline with Tween-80
[9] = dose: 100.0 mg/kg/injection, schedule: Q01DX009 (ip), vehicle: Klucel (hydroxypropylcellulose) (HPC)
[10] = dose: 200.0 mg/kg/injection, schedule: Q01DX009 (ip), vehicle: Klucel (hydroxypropylcellulose) (HPC)
[11] = dose: 200.0 mg/kg/injection, schedule: Q04DX003 (ip), vehicle: Klucel (hydroxypropylcellulose) (HPC)
[12] = dose: 400.0 mg/kg/injection, schedule: Q01DX009 (ip), vehicle: Klucel (hydroxypropylcellulose) (HPC)
[13] = dose: 400.0 mg/kg/injection, schedule: Q04DX003 (ip), vehicle: Klucel (hydroxypropylcellulose) (HPC)
[14] = dose: 100.0 mg/kg/injection, schedule: Q01DX009 (ip), vehicle: saline
[15] = dose: 200.0 mg/kg/injection, schedule: Q01DX009 (ip), vehicle: saline
[16] = dose: 400.0 mg/kg/injection, schedule: Q01DX009 (ip), vehicle: saline
[17] = dose: 400.0 mg/kg/injection, schedule: Q04DX003 (ip), vehicle: saline with Tween-80
[18] = dose: 100.0 mg/kg/injection, schedule: Q01DX001 (ip), vehicle: saline
[19] = dose: 200.0 mg/kg/injection, schedule: Q01DX001 (ip), vehicle: saline
[20] = dose: 50.0 mg/kg/injection, schedule: Q01DX009 (ip), vehicle: saline with Tween-80
[21] = dose: 100.0 mg/kg/injection, schedule: Q04DX003 (ip), vehicle: saline
[22] = dose: 200.0 mg/kg/injection, schedule: Q04DX003 (ip), vehicle: saline
[23] = dose: 400.0 mg/kg/injection, schedule: Q04DX003 (ip), vehicle: saline

Measured: T/C

O=C(CC(=O)c1cccnc1)NC(=O)c1ccccc1
inactive: dose: 100.0 mg/kg/injection, schedule: Q01DX001 (ip), vehicle: other 96 % of control | dose: 200.0 mg/kg/injection, schedule: Q01DX001 (ip), vehicle: other 86 % of control | dose: 400.0 mg/kg/injection, schedule: Q01DX001 (ip), vehicle: other 89 % of control

O=C(COc1cccc(Cl)c1)NCc1ccc([N+](=O)[O-])cc1
inactive: dose: 100.0 mg/kg/injection, schedule: Q01DX001 (ip), vehicle: saline with Tween-80 96 % of control | [1] 94 % of control | dose: 200.0 mg/kg/injection, schedule: Q01DX001 (ip), vehicle: saline with Tween-80 93 % of control | [2] 100 % of control | dose: 400.0 mg/kg/injection, schedule: Q01DX001 (ip), vehicle: saline with Tween-80 101 % of control | dose: 400.0 mg/kg/injection, schedule: Q01DX009 (ip), vehicle: saline with Tween-80 97 % of control

CCOC(=O)C1CC(=O)c2cc(OC)c(OC)cc2C1c1ccc(OC)c(OC)c1 (configuration not stated)
inactive: [3] 98 % of control | [4] 89 % of control

Fc1ccc(P(c2ccc(F)cc2)c2ccc(F)cc2)cc1
inactive: dose: 25.0 mg/kg/injection, schedule: Q01DX009 (ip), vehicle: Klucel (hydroxypropylcellulose) (HPC) 97 % of control | [5] 89 % of control | [6] 103 % of control

O=C(Nc1cccc2ccccc12)SCc1ccccc1
inactive: dose: 100.0 mg/kg/injection, schedule: Q04DX002 (ip), vehicle: Klucel (hydroxypropylcellulose) (HPC) 94 % of control | dose: 400.0 mg/kg/injection, schedule: Q04DX002 (ip), vehicle: Klucel (hydroxypropylcellulose) (HPC) 90 % of control

O=C1c2cc3c(cc2CCC1N1CCOCC1)CCCC3 (configuration not stated)
inactive: [7] 111 % of control | [8] 114 % of control

O=C1CCC2(CCC(=O)c3ccccc32)C(=O)N1 (configuration not stated)
inactive: [5] 104 % of control | [9] 104 % of control | [6] 93 % of control | [10] 104 % of control | [11] 93 % of control | [12] 108 % of control | [13] 100 % of control

COC1=CC(=O)C(C2CC(=O)c3c(O)cc(OC4OC(COC5OC(C)C(O)C(O)C5O)C(O)C(O)C4O)cc3O2)=CC1=O (configuration not stated)
inactive: [14] 95 % of control | [7] 103 % of control | [15] 97 % of control | [8] 108 % of control | [16] 88 % of control | [17] 101 % of control

C=CCOc1c(Cl)c(Cl)c(Cl)c(Cl)c1Cl
inactive: dose: 100.0 mg/kg/injection, schedule: Q01DX009 (ip), vehicle: saline sonified 96 % of control | [6] 96 % of control | dose: 200.0 mg/kg/injection, schedule: Q01DX009 (ip), vehicle: saline sonified 91 % of control | [11] 96 % of control | dose: 400.0 mg/kg/injection, schedule: Q01DX009 (ip), vehicle: saline sonified 97 % of control | [13] 96 % of control

NC(=O)NC1OC(CO)C(O)C(O)C1O (configuration not stated)
inactive: [14] 95 % of control | [15] 94 % of control | [16] 86 % of control

CC1(C)OC2/C(=N/O)C3COC(O3)C2O1 (configuration not stated)
inactive: [18] 101 % of control | [19] 95 % of control | dose: 400.0 mg/kg/injection, schedule: Q01DX001 (ip), vehicle: saline 106 % of control

CCC/C=C/CCCCCC
inactive: [20] 93 % of control | [1] 93 % of control | [2] 104 % of control

O=C1c2ccccc2C(=O)c2c(O)c(Cc3ccccn3)cc(O)c21
inactive: dose: 100.0 mg/kg/injection, schedule: Q04DX003 (ip), vehicle: saline sonified 89 % of control | dose: 200.0 mg/kg/injection, schedule: Q04DX003 (ip), vehicle: saline sonified 89 % of control | dose: 400.0 mg/kg/injection, schedule: Q04DX003 (ip), vehicle: saline sonified 94 % of control

Brc1ccc(C[N+]23CN4CN(CN(C4)C2)C3)cc1
inactive: dose: 15.0 mg/kg/injection, schedule: Q01DX015 (ip), vehicle: saline 103 % of control | dose: 30.0 mg/kg/injection, schedule: Q01DX015 (ip), vehicle: saline 102 % of control | dose: 60.0 mg/kg/injection, schedule: Q01DX015 (ip), vehicle: saline 102 % of control | [1] 101 % of control | [21] 105 % of control | dose: 120.0 mg/kg/injection, schedule: Q01DX015 (ip), vehicle: saline 105 % of control | [2] 102 % of control | [22] 103 % of control | dose: 240.0 mg/kg/injection, schedule: Q01DX015 (ip), vehicle: saline 98 % of control | [23] 92 % of control

CCCNC(=O)NS(=O)(=O)c1ccc(Cl)cc1
inactive: [6] 93 % of control | [11] 94 % of control | [13] 104 % of control

COC1CC(OC2C(C)C(=O)OC(C)C(C)C(OC(C)=O)C(C)C(=O)C3(CO3)CC(C)C(OC3OC(C)CC(N(C)C)C3OC(C)=O)C2C)OC(C)C1OC(C)=O (configuration not stated)
inactive: [3] 108 % of control | [4] 113 % of control | dose: 400.0 mg/kg/injection, schedule: Q01DX001 (ip), vehicle: carboxymethylcellulose (CMC) 108 % of control

COc1ccc(NC2=CC(=O)N(c3ccc(OC)cc3)C2=O)cc1
inactive: dose: 100.0 mg/kg/injection, schedule: Q04DX003 (ip), vehicle: other 86 % of control | dose: 200.0 mg/kg/injection, schedule: Q04DX003 (ip), vehicle: other 98 % of control | dose: 400.0 mg/kg/injection, schedule: Q04DX003 (ip), vehicle: other 98 % of control

CCOC(=O)Oc1ccc(OC)cc1
inactive: [9] 111 % of control | [21] 98 % of control | [10] 96 % of control | [22] 112 % of control | [12] 96 % of control | [23] 124 % of control

CC(C)N(C(=O)Nc1cccc(OC(=O)N(C)C)c1)C(C)C
inactive: [7] 94 % of control | [8] 88 % of control | [17] 96 % of control

CC(O)C(NC(=O)OCc1ccccc1)C(=O)NC(CO)C(=O)NN (stereo not drawn) (Cbz-Thr-Ser-NHNH2; configuration not given here)
inactive: dose: 5.0 mg/kg/injection, schedule: Q01DX001 (ip), vehicle: saline 103 % of control | dose: 10.0 mg/kg/injection, schedule: Q01DX001 (ip), vehicle: saline 103 % of control | dose: 20.0 mg/kg/injection, schedule: Q01DX001 (ip), vehicle: saline 103 % of control | dose: 40.0 mg/kg/injection, schedule: Q01DX001 (ip), vehicle: saline 105 % of control | dose: 80.0 mg/kg/injection, schedule: Q01DX001 (ip), vehicle: saline 97 % of control | [18] 103 % of control and 98 % of control | [19] 95 % of control

COc1ccc2c(c1OC)CCCCC2=O
inactive: [20] 102 % of control | [1] 98 % of control | [2] 91 % of control

CC(=O)ON1C(=O)c2cccc3cccc(c23)C1=O
inactive: dose: 100.0 mg/kg/injection, schedule: Q04DX002 (ip), vehicle: saline with Tween-80 102 % of control | dose: 200.0 mg/kg/injection, schedule: Q04DX002 (ip), vehicle: saline with Tween-80 109 % of control

COc1ccc(OC)c(C(=O)CCCCCCCCC(=O)c2cc(OC)ccc2OC)c1
inactive: [6] 104 % of control | [11] 104 % of control | [13] 90 % of control
